According to patent US9498478B2, “Spiro aminic compounds with NK1 antagonist activity” (Rottapharm Biotech Srl, priority 2011, dated 2016):

target: T1, human NK1 receptor (Homo sapiens, UniProt P25103); assay: Antagonist activity at the human NK1 receptor endogenously expressed in U373 cells, agonist-induced cytosolic Ca2+ mobilization (fluorimetric); format: cell-based; details: U373 MG, percent inhibition of control response to 3 nM [Sar9,Met(O2)11]-SP at compound concentration 10 μM, read-out: NK1 % inh @10 μM
T1 construct: human NK1 receptor endogenously expressed in U373 cells; endogenous in cells; host or cells: U373 (human U373MG astrocytoma) cells
T1 sequence (P25103 whole entry): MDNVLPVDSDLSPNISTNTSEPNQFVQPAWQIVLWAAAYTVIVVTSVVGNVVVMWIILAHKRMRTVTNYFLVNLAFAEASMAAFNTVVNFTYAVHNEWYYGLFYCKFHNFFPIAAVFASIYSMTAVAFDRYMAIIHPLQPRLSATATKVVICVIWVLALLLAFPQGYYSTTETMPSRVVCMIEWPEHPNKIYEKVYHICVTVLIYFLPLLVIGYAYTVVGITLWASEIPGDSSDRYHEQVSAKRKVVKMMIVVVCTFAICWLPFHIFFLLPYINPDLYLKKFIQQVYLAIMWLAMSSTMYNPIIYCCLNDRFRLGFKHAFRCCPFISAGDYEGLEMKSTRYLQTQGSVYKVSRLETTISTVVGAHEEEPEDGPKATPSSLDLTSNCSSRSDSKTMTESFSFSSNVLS
Protocol: Evaluation of the antagonist activity of compounds at the human NK1 receptor endogenously expressed in U373 cells was determined by measuring their effect on agonist-induced cytosolic Ca2+ ion mobilization using a fluorimetric detection method.
The cells were suspended in DMEM buffer (Invitrogen), then distributed in microplates at a density of 1.10^4 cells/well. The fluorescent probe (Fluo4 NW, Invitrogen) mixed with probenicid in HBSS buffer (Invitrogen) complemented with 20 mM Hepes (Invitrogen) (pH 7.4) was then added into each well and equilibrated with the cells for 60 min at 37° C. then 15 min at 22° C. Thereafter, the assay plates were positioned in a microplate reader (CellLux, PerkinElmer) which was used for the addition of the test compound, reference antagonist or HBSS buffer then 5 min later 3 nM [Sar9,Met(O2)11]-SP or HBSS buffer (basal control), and the measurements of changes in fluorescence intensity which varies proportionally to the free cytosolic Ca2+ ion concentration.
The compounds, dissolved in DMSO and diluted in the medium, have been analysed in the 1 nM-1 μM concentration range (every concentration in duplicate). The antagonistic activity vs receptor NK1 of invention compounds has been expressed as pKb (co-logarithm of the apparent dissociation constant calculated by using the modified Cheng Prusoff equation) or alternatively as a percent of inhibition of the control response to 3 nM [Sar^9,Met(O2)^11]-SP at a compound concentration of 10 μM.
The standard reference antagonist was L 733,060, which was tested in each experiment at several concentrations to generate a concentration-response curve from which its IC50 value is calculated. • Bibliographic reference: EISTETTER, H. R., MILLS, A., BREWSTER, R., ALOUANI, S., RAMBOSSON, C. and KAWASHIMA, E. (1992), Functional characterization of neurokinin-1 receptor on human U373MG astrocytoma cells, Glia, 6: 89.

Compared with `Cc1ccc(-c2ccccn2)c(C(=O)N2CCC3(CC3)C[C@H]2CNc2ccc(Cl)cn2)c1` [Compound 2, (S)-(5-(((5-chloropyridin-2-yl)amino)methyl)-6-azaspiro[2.5]octan-6-yl)(5-methyl-2-(pyridin-2-yl)phenyl)methanone], `O=C(c1cc(F)ccc1-c1ccccn1)N1CCC2(CC2)C[C@H]1CNc1ccc(Cl)cn1` [Compound 3, (S)-(5-(((5-chloropyridin-2-yl)amino)methyl)-6-azaspiro[2.5]octan-6-yl)(5-fluoro-2-(pyridin-2-yl)phenyl)methanone] is lower in inhibition at 10 µM: 87% for the first, 65% for the second.

`O=C(c1cc(F)ccc1-n1nccn1)N1CCC2(CC2)C[C@H]1CNc1ccc(Cl)cn1` [Compound 4, (S)-(5-(((5-chloropyridin-2-yl)amino)methyl)-6-azaspiro[2.5]octan-6-yl)(5-fluoro-2-(2H-1,2,3-triazol-2-yl)phenyl)methanone] and `Cc1ccc(-n2nccn2)c(C(=O)N2CCC3(CC3)C[C@H]2CNc2ccc(Cl)cn2)c1` [Compound 6, (S)(5-((5-chloropyridin-2-ylamino)methyl)-6-azaspiro[2.5]octan-6-yl)(5-methyl-2-(2H-1,2,3-triazol-2-yl)phenyl)methanone] are the same in inhibition at 10 µM: 61% for the first, 61% for the second.

First: Cc1ccc(-n2nccn2)c(C(=O)N2CCC3(CC3)C[C@H]2CNc2ccc(C(F)(F)F)cn2)c1 [Compound 5, (S)-(5-methyl-2-(2H-1,2,3-triazol-2-yl)phenyl)(5-(((5-(trifluoromethyl)pyridin-2-yl)amino)methyl)-6-azaspiro[2.5]octan-6-yl)methanone]
Second: Cc1ccc(-c2ncccn2)c(C(=O)N2CCC3(CC3)C[C@H]2CNc2ccc(C(F)(F)F)cn2)c1 [Compound 7, (S)-(5-methyl-2-(pyrimidin-2-yl)phenyl)(5-(((5-(trifluoromethyl)pyridin-2-yl)amino)methyl)-6-azaspiro[2.5]octan-6-yl)methanone]
The inhibition at 10 µM of the first is lower: 67% for the first, 87% for the second.

same assay, conditions: co-logarithm of apparent dissociation constant by modified Cheng Prusoff equation, agonist 3 nM [Sar9,Met(O2)11]-SP, read-out: pKb NK1 (converted)

Compared with `O=C(c1cc(Cl)ccc1-c1ncccn1)N1CCC2(CC2)C[C@H]1CNc1ccc(Cl)cn1` [Compound 1, (S)-(5-chloro-2-(pyrimidin-2-yl)phenyl)(5-(((5-chloropyridin-2-yl)amino)methyl)-6-azaspiro[2.5]octan-6-yl)methanone], `Cc1ccc(-c2ncccn2)c(C(=O)N2CCC3(CC3)C[C@H]2CNc2ccc(Cl)cn2)c1` [Compound 8, (S)-(5-(((5-chloropyridin-2-yl)amino)methyl)-6-azaspiro[2.5]octan-6-yl)(5-methyl-2-(pyrimidin-2-yl)phenyl)methanone] is 2-fold higher in Kb: 2.51 nM for the first, 5.01 nM for the second.

`O=C(c1cc(F)ccc1-c1ncccn1)N1CCC2(CC2)C[C@H]1CNc1ccc(Cl)cn1` [Compound 9, (S)-(5-(((5-chloropyridin-2-yl)amino)methyl)-6-azaspiro[2.5]octan-6-yl)(5-fluoro-2-(pyrimidin-2-yl)phenyl)methanone] gave a Kb of 2.51 nM.
